Reference: patent US20030171307A1, “Azalide antibiotic compositions” (Pfizer Inc., priority 2001, published 2003)

Assay: Equilibration of azalide isomers I and II in heated aqueous acid, HPLC (Table 1)
Assay type: physicochemical
Conditions: isomer I prior to equilibration, for comparison

## CCCNC[C@]1(O)[C@H](C)O[C@@H](O[C@H]2[C@H](C)[C@@H](OC3O[C@H](C)C[C@H](N(C)C)[C@H]3O)C(C)(O)C[C@@H](C)CN[C@H](C)[C@@H](O)[C@](C)(O)[C@@H](CC)OC(=O)[C@@H]2C)C[C@@]1(C)OC (single isomer, unassigned) [isomer I]
  % Equilibrium mixture of isomers: 98.39%
  % Impurities: 1.61%
